Measurements: patent US20090137527A1, “Compositions and methods for modulating immune function” (Resolvyx Pharmaceuticals, Inc., priority 2007, published 2009)
Entries after “also recorded” stand apart in the source; their conditions may differ.

Key:
spleen cells = assay: In vitro treatment of mouse spleen cells, CD3-induced cytokine production; type: cell-based; conditions: 10 nM or 1000 nM, 5 days culture, then anti-CD3 overnight
Method: BALB/c female mice, 6-8 weeks old, were euthanized and spleens were removed under sterile conditions. Spleens were gently pressed through a nylon strainer. Spleen cells and remaining connective tissue mass were incubated in a 6-well plate with 4 mL of Growth Media (RPMI 1640 supplemented with 10% FCS). Compound X was added to give a final concentration of 10 nM or 1000 nM. Control groups were spleen cells without addition of Compound X. All groups were in triplicates (3 animals per group). Plates were cultured in a 37° C., 5% CO2 incubator. Once a day, 1 mL of culture media was removed from each well and replaced with 1 mL fresh growth media containing the same concentration of Compound X or fresh media only. Culture was continued for 5 days. All cells were then removed from the plates. Cells were passed through a nylon strainer to remove any aggregates, washed, counted and adjusted to 2.5×10^6/mL in growth media. To anti-CD3 coated plates (coated per the procedure described below) were added 200 μL, or 5×10^5 cells per well. Cells were cultured in a 37° C., 5% CO2 incubator overnight. Supernatants were harvested, and cytokine levels were measured by Bioplex.
For CD3 stimulation, anti-mouse CD3 mAb (BD Pharmingen clone 145-2C11) was used at 0.2 μg/mL in PBS to coat flat bottom 96-well plate at 4° C. overnight. Plates were rinsed twice with PBS before use.

[1] = tested on: lymph node cells from collagen-induced arthritis rats; assay: Ex vivo cytokine production in lymph node cells from CIA rats treated with compound; set-up: species or system rat
Method: (§1) Female Lewis rats were anesthetized with 3-5% isoflurane and arthritis was induced by intradermal injection of 0.3 mL (100 μL at three different sites) of an emulsion […] 1.5 mg/mL of type II bovine collagen, CII (Elastin Products Inc., Cat# CM276), in incomplete Freund's adjuvant (IFA) at the base of the tail on day 0 and 6. Control rats were injected with an equal amount of IFA only.
(§2) were measured under two different treatment regimens. In the first (prophylactic) treatment regimen, Compound X was administered i.v., twice daily, at 0.3 mg/kg from day 0 to day 6 or 10. For ex vivo studies, animals were euthanized on day 6 after the last injection and their inguinal lymph nodes were harvested. […] For ex vivo studies, animals were euthanized on day 16 and inguinal lymph nodes were harvested. Venous blood samples were collected during the course of treatment. For CD3 activation, 96-well flat bottom plates were coated with anti-CD3 mAb (eBioscience, clone G4.18) 1 μg/mL. Plates were stored overnight at 4° C., and were subsequently rinsed with PBS once before use. Bovine Type II collagen for tissue culture was purchased from Chondrex (Cat# 2022) and was reconstituted according to the manufacturer's instructions. All data were processed and analyzed by t-test using GraphPad Prism software.
Treatment regimen one was used (n=3). Animals were treated with Compound X from day 0 to day 6, were sacrificed on day 6, and freshly harvested lymph nodes were pressed through a nylon strainer (BD Falcon Cat# 352340) to obtain a single cell suspension. Cells were washed and resuspended in RPMI 1640/10% FCS at 4×10^6/mL. In U-bottom 96-well plates, 100 μL or 4×10^5 cells and 100 μL of collagen at 25 or 50 μg/mL final concentrations were added. Plates were incubated in a 37° C., 5% CO2 incubator overnight. Supernatants were harvested, and rat cytokines were measured with Bioplex (BioRad).
In FIG. 2A, animals were given compound X from Day 0 to Day 6 (treatment regimen one). In FIG. 2B, animals were given compound X from day 8 to day 16 (treatment regimen two).
In FIG. 3A, animals were given compound X from Day 0 to Day 6 (treatment regimen one). In FIG. 3B, animals were given compound X from day 8 to day 16 (treatment regimen two). Freshly harvested lymph nodes were pressed through a nylon strainer (BD Falcon Cat# 352340) to obtain a single cell suspension. Cells were washed and resuspended in RPMI 1640/10% FCS at 4×10^6/mL. To anti-CD3 coated plates were added 4×10^5 cells per well and 100 μL RPMI 1640/10% FCS media. The plates were incubated in a 37° C., 5% CO2 incubator for three days (FIG. 3A) or overnight (FIG. 3B). Rat IL-17 was measured with a kit from Millipore (Cat# RCYTO-18K-01) following the manufacturer's instructions.

[2] = tested on: murine DNFB-induced DTH model; assay: DNFB-induced delayed-type-hypersensitivity (DTH) model, ear swelling; type: in vivo, mouse
Method: Ear-swelling (swelling of the skin on the pinnae) was the endpoint of this model. This study was carried out over 6 to 7 days, with events occurring as described below.
Mice (female BALB/c; n=10/group) were immunized with 0.5% of DNFB dissolved in acetone/olive oil. Sensitization was done with the contact allergen, wherein 20 μL of the solution was placed on the footpads of the animals.
[…] The mice were challenged at day 5. 10 μL of a 0.8% DNFB solution was topically applied externally on the right ear of the animal. As control, the left ear was treated the same way with vehicle alone (acetone/olive oil).
Animals were anesthetized with isoflurane and the ear swelling was measured within 24 to 48 hours after challenge using a micrometer. The micrometer calipers were closed around the top portion of the each external ear until resistance from the ear was felt. […]

[3] = tested on: whole blood from CIA rats; assay: Ex vivo LPS-stimulated cytokines in whole blood from CIA rats; set-up: species or system rat; conditions: 0.3 mg/kg i.v. twice daily (day 20 sample: 1 mg/kg orally twice daily) from day 8; 10 ng/mL LPS, 4 hours
Method: as §1
as §2, with “Bovine Type II collagen for tissue culture was purchased from Chondrex (Cat# 2022) and was reconstituted according to the manufacturer's instructions.” left out
To measure the effect of Compound X on blood cells, rat whole blood samples were taken on day 8, 10, 13, 16 and 20 (n=3-6). […] After 4 hours in culture, supernatants were collected and cytokine levels measured by Bioplex.

[4] = two treatment regimens: day 0 to day 6, or day 8 to day 16, 0.3 mg/kg i.v. twice daily

In the case of `CC[C@@H](O)/C=C/C=C\C[C@@H](O)/C=C/C=C/C=C\[C@@H](O)CCCC(=O)O` [Compound X], the “CD3-induced cytokine production of spleen cells after in vitro treatment” value (spleen cells) is reported as “inhibited”, the “ex vivo IFN-γ and TNFα production in lymph node cells” value ([1]; 0.3 mg/kg i.v. twice daily day 0 to day 6, collagen 25 or 50 μg/mL overnight) is reported as “inhibited” and the “reduction of collagen- or CD3-induced IFNγ, TNFα and IL-17 secretion from draining lymph node cells” value ([1]; treated animals compared to controls) is reported as 60-90%. For the same compound, the “ex vivo anti-CD3 mAb-induced IL-17 production in lymph node cells” value [1, 4] was “inhibited”, the “ex vivo collagen-induced IFN-γ production in lymph node cells” value [1, 4] was “inhibited” and the “maximal efficacy, inhibition of tissue (ear) swelling” value ([2]; 30 μg/kg i.v., 15 minutes before challenge, ear thickness 24 hours after challenge) was 38%. For the same compound, the “inhibition of the DTH response, Compound X versus dexamethasone” value ([2]; dexamethasone 60 minutes prior to DNFB challenge) was “comparable levels of inhibition”, the “DNFB-DTH response, two regimens” value ([2]; i.p. 0.03 mg/kg once daily day 0 to day 5, or single injection on day 5) was “comparable and significant reduction” and the “tissue swelling, dose dependence” value ([2]; i.v., 15 minutes before challenge) was “dose-dependently reduced”. For the same compound, the “ex vivo LPS-stimulated cytokine production in whole blood” value [3] was “inhibited; also recorded: significantly lower”.
